Source: ChEMBL document CHEMBL4765389, “Antimicrobial and anti-inflammatory activities of short dodecapeptides derived from duck cathelicidin: Plausible mechanism of bactericidal action and endotoxin neutralization” (Eur J Med Chem, 2020)
The source made the active and inactive calls. The rule behind the calls is not given here.

Columns and labels:
DNA = test: Binding affinity to Escherichia coli pBR322 DNA assessed as increase in DNA retardation at 8 uM incubated for 1 hr by agarose gel electrophoresis relative to control; assay type: nucleic-acid assay
[1] = Antibacterial activity against multidrug-resistant Pseudomonas aeruginosa CCARM 2095 assessed as fractional inhibitory concentration incubated for 24 hrs in presence of chloramphenicol by CLSI based broth dilution method; assay type: functional
Bacteria [2] = test: Antibacterial activity against Gram negative bacteria assessed as reduction in bacterial growth incubated for 24 hrs by CLSI based broth dilution method; assay type: functional; conditions: read-out: MIC100
[3] = Antibacterial activity against multidrug-resistant Pseudomonas aeruginosa CCARM 2095 assessed as fractional inhibitory concentration incubated for 24 hrs in presence of ciprofloxacin by CLSI based broth dilution method; assay type: functional
Staphylococcus aureus [4] = test: Antibacterial activity against Staphylococcus aureus KCTC 1621 assessed as reduction in bacterial growth incubated for 24 hrs in presence of 20 % serum by CLSI based broth dilution method; assay type: functional; conditions: read-out: MIC100
RAW264.7 [5] = test: Antiinflammatory activity against mouse RAW264.7 cells assessed as reduction in LPS-induced nitrite level at 5 uM incubated for 24 hrs by Griess reagent based assay relative to control; assay type: functional
Cell membrane [6] = test: Induction of cell membrane permeability in Staphylococcus aureus KCTC 1621 assessed as cytoplasmic membrane depolarization at 16 uM by DiSC3-5 dye based spectrofluorometry; assay type: subcellular
Staphylococcus aureus [7] = test: Antibacterial activity against methicillin-resistant Staphylococcus aureus CCARM 3090 assessed as reduction in bacterial growth incubated for 24 hrs in presence of oxacillin by CLSI based broth dilution method; assay type: functional; conditions: read-out: MIC100
Salmonella typhimurium = test: Antibacterial activity against Salmonella typhimurium KCTC 1926 assessed as reduction in bacterial growth incubated for 24 hrs by CLSI based broth dilution method; assay type: functional, Salmonella enterica subsp. enterica serovar Typhimurium; conditions: Salmonella enterica, read-out: MIC100
Escherichia coli [8] = test: Antibacterial activity against Escherichia coli KCTC 1682 assessed as reduction in bacterial growth incubated for 24 hrs in presence of 20 % serum by CLSI based broth dilution method; assay type: functional; conditions: read-out: MIC100
Cell membrane [9] = test: Induction of cell membrane permeability in Staphylococcus aureus KCTC 1621 assessed as cytoplasmic membrane depolarization at 16 uM by SYTOX dye based fluorescence assay; assay type: subcellular
Staphylococcus aureus [10] = test: Antibacterial activity against Staphylococcus aureus KCTC 1621 assessed as reduction in bacterial growth incubated for 24 hrs by CLSI based broth dilution method; assay type: functional; conditions: read-out: MIC100
[11] = Antibacterial activity against multidrug-resistant Pseudomonas aeruginosa CCARM 2095 assessed as reduction in bacterial growth incubated for 24 hrs in presence of oxacillin by CLSI based broth dilution method; assay type: functional; conditions: read-out: MIC100
Escherichia coli [12] = test: Antibacterial activity against Escherichia coli KCTC 1682 assessed as reduction in bacterial growth incubated for 24 hrs in presence of 4 uM FeCl3 by CLSI based broth dilution method; assay type: functional; conditions: read-out: MIC100
[13] = Cytotoxicity against mouse NIH/3T3 cells assessed as reduction in cell viability at 20 uM incubated for 24 hrs by MTT assay; assay type: cell-based, NIH3T3; conditions: NIH/3T3 cells, read-out: INH
[14] = Antibacterial activity against multidrug-resistant Pseudomonas aeruginosa CCARM 2095 assessed as reduction in bacterial growth incubated for 24 hrs in presence of ciprofloxacin by CLSI based broth dilution method; assay type: functional; conditions: read-out: MIC100
[15] = Antibacterial activity against multidrug-resistant Pseudomonas aeruginosa CCARM 2095 assessed as fractional inhibitory concentration incubated for 24 hrs in presence of oxacillin by CLSI based broth dilution method; assay type: functional
Staphylococcus aureus [16] = test: Antibacterial activity against Staphylococcus aureus KCTC 1621 assessed as reduction in bacterial growth incubated for 24 hrs in presence of 2.5 mM CaCl2 by CLSI based broth dilution method; assay type: functional; conditions: read-out: MIC100
[17] = Therapeutic index, ratio of HC10 for sheep RBC to geometric mean MIC for gram negative bacteria; assay type: toxicity; conditions: sheep red blood cells, read-out: TI
[18] = Antibacterial activity against multidrug-resistant Pseudomonas aeruginosa CCARM 2095 assessed as fractional inhibitory concentration index incubated for 24 hrs in presence of oxacillin by CLSI based broth dilution method; assay type: functional
Candida albicans = test: Antifungal activity against Candida albicans KCTC 7965 assessed as reduction in fungal growth incubated for 24 hrs by CLSI based broth dilution method; assay type: functional; conditions: read-out: MIC100
Staphylococcus aureus [19] = test: Antibacterial activity against Staphylococcus aureus KCTC 1621 assessed as reduction in bacterial growth incubated for 24 hrs in presence of 150 mM NaCl by CLSI based broth dilution method; assay type: functional; conditions: read-out: MIC100
Lipopolysaccharide (LPS) = test: Inhibition of Escherichia coli O111:B4 LPS aggregation assessed as increase in FITC-LPS dissociation by spectrofluorometry
Erythrocyte = test: Hemolytic activity in sheep RBC assessed as reduction in hemoglobin at 256 uM incubated for 1 hr; assay type: ADME, cell-based, Ovis aries
Escherichia coli [20] = test: Antibacterial activity against Escherichia coli KCTC 1682 assessed as reduction in bacterial growth incubated for 24 hrs in presence of 2.5 mM CaCl2 by CLSI based broth dilution method; assay type: functional; conditions: read-out: MIC100
Bacteria [21] = test: Antibacterial activity against Gram positive bacteria assessed as reduction in bacterial growth incubated for 24 hrs by CLSI based broth dilution method; assay type: functional; conditions: read-out: MIC100
[22] = Antibacterial activity against multidrug-resistant Pseudomonas aeruginosa CCARM 2109 assessed as reduction in bacterial growth incubated for 24 hrs by CLSI based broth dilution method; assay type: functional; conditions: read-out: MIC100
Escherichia coli [23] = test: Bactericidal activity against Escherichia coli KCTC 1682 assessed as reduction in colony forming unit at MIC measured at 3 hrs by time kill assay; assay type: functional
Saccharomyces cerevisiae = test: Antifungal activity against yeast assessed as reduction in fungal growth incubated for 24 hrs by CLSI based broth dilution method; assay type: functional; conditions: read-out: MIC100
RAW264.7 [24] = test: Antiinflammatory activity in mouse RAW264.7 cells assessed as neutralization of LPS binding by measuring LPS-FITC aggregation at 10 uM pretreated with LPS for 1 hr followed by compound addition and measured after 1 hr by flowcytometry analysis (reference value: 48.12 %); assay type: functional
[25] = Antibacterial activity against multidrug-resistant Pseudomonas aeruginosa CCARM 2095 assessed as fractional inhibitory concentration index incubated for 24 hrs in presence of ciprofloxacin by CLSI based broth dilution method; assay type: functional
Pseudomonas aeruginosa = test: Antibacterial activity against Pseudomonas aeruginosa KCTC 1637 assessed as reduction in bacterial growth incubated for 24 hrs by CLSI based broth dilution method; assay type: functional; conditions: read-out: MIC100
Escherichia coli [26] = test: Antibacterial activity against Escherichia coli KCTC 1682 assessed as reduction in bacterial growth incubated for 24 hrs in presence of 150 mM NaCl by CLSI based broth dilution method; assay type: functional; conditions: read-out: MIC100
[27] = Antibacterial activity against multidrug-resistant Pseudomonas aeruginosa CCARM 2095 assessed as reduction in bacterial growth incubated for 24 hrs by CLSI based broth dilution method; assay type: functional; conditions: read-out: MIC100
[28] = Therapeutic index, ratio of HC10 for sheep RBC to geometric mean MIC for gram positive bacteria; assay type: toxicity; conditions: sheep red blood cells, read-out: TI
Staphylococcus aureus [29] = test: Antibacterial activity against methicillin-resistant Staphylococcus aureus CCARM 3090 assessed as reduction in bacterial growth incubated for 24 hrs in presence of ciprofloxacin by CLSI based broth dilution method; assay type: functional; conditions: read-out: MIC100
Escherichia coli [30] = test: Antibacterial activity against Escherichia coli KCTC 1682 assessed as reduction in bacterial growth incubated for 24 hrs in presence of 6 uM NH4Cl by CLSI based broth dilution method; assay type: functional; conditions: read-out: MIC100

Row | Substance | Activity (DNA) [%] | FIC [1] | MIC (Bacteria [2]) [µM] | FIC [3] | MIC (Staphylococcus aureus [4]) [µM] | inhibition at 5 µM (RAW264.7 [5]) [%] | Activity (Cell membrane [6]) | MIC (Staphylococcus aureus [7]) [µM] | MIC (Salmonella typhimurium) [µM] | MIC (Escherichia coli [8]) [µM] | Activity (Cell membrane [9]) | MIC (Staphylococcus aureus [10]) [µM] | MIC [11] [µM] | MIC (Escherichia coli [12]) [µM] | cytotoxicity at 24 h, 20 µM [13] [%] | MIC [14] [µM] | FIC [15] | MIC (Staphylococcus aureus [16]) [µM] | selectivity ratio [17] | fractional inhibitory concentration index (FICI) [18] | other results
1 | H-LIKKIYRKWKRW-NH2 | 100 | 0.0625 | 5.6 | 0.125 | 4 | 51.4 | inactive | 64 | 2 | 8 | inactive | 4 | 64 | 8 | < 10 | 64 | 0.125 | 4 | 91.4 | 0.375 | MIC (Candida albicans): 8 µM; MIC (Staphylococcus aureus [19]): 8 µM; inhibition (Lipopolysaccharide (LPS)): Dose-dependent effect; Activity (Erythrocyte): Non-Toxic; MIC (Escherichia coli [20]): 8 µM; MIC (Bacteria [21]): 7.1 µM; MIC [22]: 8 µM; Activity (Escherichia coli [23]): <2 log10CFU/ml; MIC (Saccharomyces cerevisiae): 6 µM; Activity (RAW264.7 [24]): 24.41%; fractional inhibitory concentration index (FICI) [25]: 0.375; MIC (Pseudomonas aeruginosa): 2 µM; MIC (Escherichia coli [26]): 4 µM; MIC [27]: 8 µM; selectivity ratio [28]: 71.1; MIC (Staphylococcus aureus [29]): 128 µM; MIC (Escherichia coli [30]): 2 µM
2 | H-LWKKIYRKWKRW-NH2 | 100 | 0.125 | 4 | 0.125 | 4 | 91.6 | inactive | 64 | 2 | 8 | inactive | 2 | 64 | 8 | < 10 | 64 | 0.125 | 4 | 128 | 0.375 | MIC (Candida albicans): 8 µM; MIC (Staphylococcus aureus [19]): 2 µM; inhibition (Lipopolysaccharide (LPS)): Dose-dependent effect; Activity (Erythrocyte): Non-Toxic; MIC (Escherichia coli [20]): 4 µM; MIC (Bacteria [21]): 6.8 µM; MIC [22]: 4 µM; Activity (Escherichia coli [23]): <2 log10CFU/ml; MIC (Saccharomyces cerevisiae): 6 µM; Activity (RAW264.7 [24]): 15.47%; fractional inhibitory concentration index (FICI) [25]: 0.375; MIC (Pseudomonas aeruginosa): 2 µM; MIC (Escherichia coli [26]): 4 µM; MIC [27]: 8 µM; selectivity ratio [28]: 753; MIC (Staphylococcus aureus [29]): 64 µM; MIC (Escherichia coli [30]): 2 µM
